Reference: PMC11766795 (Marine Drugs, 2025)

Legend:
in vitro = settings: human
pseudotyped virus EBOV = test: microbe, parasite or virus in culture; format: cell-based, Zaire ebolavirus; settings: for IC50: Zaire ebolavirus, TZM-bl, read-out: IC50 (µM) Pseudovirus, EBOV
[1] = system: Wild-type EBOV (Makona C07 strain, IRF0192); test: microbe, parasite or virus in culture; format: cell-based, Ebola virus; settings: Zaire ebolavirus, Huh-7, 48 h, read-out: IC50 (µM) Infectious Virus, EBOV
MARV (Angola, IRF0202) = test: cells; format: cell-based, Marburg virus; settings: Homo sapiens, Huh-7, 24 h, read-out: IC50 (µM) Infectious Virus, MARV
[2] = target: RBD of EBOV-GP (RBD-Fc fusion protein) (Zaire ebolavirus, UniProt Q05320); test: biochemical; format: binding
Sequence of RBD of EBOV-GP (RBD-Fc fusion protein) (Q05320 54-201 limits assumed): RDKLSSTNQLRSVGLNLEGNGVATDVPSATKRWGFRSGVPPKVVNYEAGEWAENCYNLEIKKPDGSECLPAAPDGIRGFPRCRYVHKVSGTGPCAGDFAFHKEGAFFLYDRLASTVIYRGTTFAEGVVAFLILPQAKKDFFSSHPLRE

HIV strain, HXBc2 (HX) = format: cell-based, Human immunodeficiency virus
[3] = system: vesicular stomatitis virus (VSV); format: cell-based
[4] = system: amphitropic murine leukemia virus (A-MLV); format: cell-based
pseudotyped MARV = test: microbe, parasite or virus in culture; format: cell-based, Marburg marburgvirus; settings: for IC50: Orthomarburgvirus marburgense, TZM-bl, read-out: IC50 (µM) Pseudovirus, MARV

Structure (SMILES)	CC50 (in vitro)	Activity in screening against pseudotyped EBOV (pseudotyped virus EBOV)	IC50 (pseudotyped virus EBOV)	IC50 [1]	IC50 (MARV (Angola, IRF0202))	Kd [2]	Neutralization of pseudotyped HIV (specificity) (HIV strain, HXBc2 (HX))	Neutralization of pseudotyped VSV (specificity) [3]	Neutralization of pseudotyped EBOV in specificity test (pseudotyped virus EBOV)	SI, Selectivity index (CC50/IC50), EBOV (pseudotyped virus EBOV)	Neutralization of pseudotyped A-MLV (specificity) [4]	Activity in screening against pseudotyped MARV (pseudotyped MARV)	Neutralization of pseudotyped MARV in specificity test (pseudotyped MARV)	SI, Selectivity index (CC50/IC50), MARV (pseudotyped MARV)	IC50 (pseudotyped MARV)
CC(=O)N[C@H](Cc1c[nH]c2ccccc12)C(=O)O [N-Ac-D-tryptophan, N-Acetyl-D-Tryptophan, reference compound]	> 60 µM	some activity	> 48 µM												
C[C@@]12NC(=O)[C@H](Cc3c1[nH]c1ccccc31)n1c2nc2ccccc2c1=O [Compound W12, Fumiquinazoline J]	24.8 µM	modest activities	~1.68 µM	15.3 µM	64.5 µM	91.4 µM	neither of them did so	neither of them did so	neutralizing	15	neither of them did so	modest activities	neutralizing	26	0.96 µM
CC(=O)N[C@@H](Cc1c[nH]c2ccccc12)C(=O)O [N-Ac-L-tryptophan, N-Acetyl-L-Tryptophan, reference compound]	> 60 µM	some activity	> 48 µM												
CC(=O)OCC(=O)OC1CCC2(C)C(CCC3c4c([nH]c5ccccc45)CC32C)C1(C)CCC=C(C)C (centres unmarked) [Compound W27, Fusaindoterpene B]	16.3 µM	modest activities	~2.82 µM	33 µM	83.3 µM					7		modest activities		6	2.63 µM
CC(C)=CCC[C@]1(C)[C@@H](O)CC[C@@]2(C)[C@H]1CC[C@H]1Cc3c([nH]c4ccccc34)[C@@]12C [Compound W26, Emindole SB]	20.9 µM	modest activities	~3.17 µM	49.8 µM	95.7 µM		neither of them did so	neither of them did so	neutralizing	7	neither of them did so	modest activities	neutralizing	10	2.15 µM
